{"source": "patent US20030144336A1", "about": "“Method of selecting nonsedating H1-antagonists” (priority 2001, published 2003)", "key": {"P-gp (mdr1a/1b) [1]": {"target": "T1, P-gp (mdr1a/1b) (Mus musculus, UniProt P21447)", "T1 sequence (P21447 whole entry)": "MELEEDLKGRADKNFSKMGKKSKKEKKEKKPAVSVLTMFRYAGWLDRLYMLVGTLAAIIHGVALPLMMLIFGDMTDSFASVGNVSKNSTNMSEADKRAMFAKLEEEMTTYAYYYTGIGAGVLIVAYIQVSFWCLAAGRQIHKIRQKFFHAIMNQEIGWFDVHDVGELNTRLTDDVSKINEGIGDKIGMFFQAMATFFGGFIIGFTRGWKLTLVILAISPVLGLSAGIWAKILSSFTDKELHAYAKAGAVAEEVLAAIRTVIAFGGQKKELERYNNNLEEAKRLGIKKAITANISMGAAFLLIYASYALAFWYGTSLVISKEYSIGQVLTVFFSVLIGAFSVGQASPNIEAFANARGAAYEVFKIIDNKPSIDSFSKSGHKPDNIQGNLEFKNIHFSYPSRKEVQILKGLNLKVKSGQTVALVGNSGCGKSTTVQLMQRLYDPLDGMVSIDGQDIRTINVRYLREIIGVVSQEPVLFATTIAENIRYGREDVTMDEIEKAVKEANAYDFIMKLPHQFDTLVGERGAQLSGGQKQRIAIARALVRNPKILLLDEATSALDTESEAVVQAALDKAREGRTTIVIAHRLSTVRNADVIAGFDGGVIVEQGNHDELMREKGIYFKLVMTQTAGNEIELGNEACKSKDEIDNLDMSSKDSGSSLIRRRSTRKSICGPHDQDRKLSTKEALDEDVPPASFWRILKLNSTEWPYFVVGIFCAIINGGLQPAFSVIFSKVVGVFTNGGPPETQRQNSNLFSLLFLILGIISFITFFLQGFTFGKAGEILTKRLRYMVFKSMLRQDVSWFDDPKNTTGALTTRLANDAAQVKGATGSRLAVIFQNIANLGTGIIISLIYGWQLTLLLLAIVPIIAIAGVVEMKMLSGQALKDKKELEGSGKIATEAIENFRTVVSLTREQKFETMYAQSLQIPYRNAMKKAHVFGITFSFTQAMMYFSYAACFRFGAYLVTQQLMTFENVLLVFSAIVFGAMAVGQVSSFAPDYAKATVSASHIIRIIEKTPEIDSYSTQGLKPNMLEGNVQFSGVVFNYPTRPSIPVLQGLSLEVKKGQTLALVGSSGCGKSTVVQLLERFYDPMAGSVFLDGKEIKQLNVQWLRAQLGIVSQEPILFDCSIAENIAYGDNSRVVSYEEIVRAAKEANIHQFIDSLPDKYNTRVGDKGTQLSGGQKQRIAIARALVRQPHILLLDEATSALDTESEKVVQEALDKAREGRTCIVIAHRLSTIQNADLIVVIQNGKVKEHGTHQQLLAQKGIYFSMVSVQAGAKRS", "conditions": "male, FVB and mdr1a/1b KO, in vivo"}, "in vivo": {"assay": "in vivo", "conditions": "male, mouse, iv, 5 mg/kg"}, "P-gp (mdr1a/1b) [2]": {"target": "T1, P-gp (mdr1a/1b)", "assay": "in vivo", "conditions": "male, iv, 5 mg/kg"}, "[3]": {"assay": "Blood-brain distribution of H1-antagonists in WT mice and mdr1a/1b KO mice", "conditions": "male, FVB, mouse, brain, iv, 5 mg/kg"}, "P-gp (mdr1a/1b) [4]": {"target": "T1, P-gp (mdr1a/1b)", "assay": "Blood-brain distribution of H1-antagonists in WT mice and mdr1a/1b KO mice", "conditions": "WT and KO mice, post i.v. dose"}, "MDR1 (P-gp) [5]": {"target": "T2, MDR1 (P-gp) (Homo sapiens, UniProt P08183)", "T2 sequence (P08183 whole entry)": "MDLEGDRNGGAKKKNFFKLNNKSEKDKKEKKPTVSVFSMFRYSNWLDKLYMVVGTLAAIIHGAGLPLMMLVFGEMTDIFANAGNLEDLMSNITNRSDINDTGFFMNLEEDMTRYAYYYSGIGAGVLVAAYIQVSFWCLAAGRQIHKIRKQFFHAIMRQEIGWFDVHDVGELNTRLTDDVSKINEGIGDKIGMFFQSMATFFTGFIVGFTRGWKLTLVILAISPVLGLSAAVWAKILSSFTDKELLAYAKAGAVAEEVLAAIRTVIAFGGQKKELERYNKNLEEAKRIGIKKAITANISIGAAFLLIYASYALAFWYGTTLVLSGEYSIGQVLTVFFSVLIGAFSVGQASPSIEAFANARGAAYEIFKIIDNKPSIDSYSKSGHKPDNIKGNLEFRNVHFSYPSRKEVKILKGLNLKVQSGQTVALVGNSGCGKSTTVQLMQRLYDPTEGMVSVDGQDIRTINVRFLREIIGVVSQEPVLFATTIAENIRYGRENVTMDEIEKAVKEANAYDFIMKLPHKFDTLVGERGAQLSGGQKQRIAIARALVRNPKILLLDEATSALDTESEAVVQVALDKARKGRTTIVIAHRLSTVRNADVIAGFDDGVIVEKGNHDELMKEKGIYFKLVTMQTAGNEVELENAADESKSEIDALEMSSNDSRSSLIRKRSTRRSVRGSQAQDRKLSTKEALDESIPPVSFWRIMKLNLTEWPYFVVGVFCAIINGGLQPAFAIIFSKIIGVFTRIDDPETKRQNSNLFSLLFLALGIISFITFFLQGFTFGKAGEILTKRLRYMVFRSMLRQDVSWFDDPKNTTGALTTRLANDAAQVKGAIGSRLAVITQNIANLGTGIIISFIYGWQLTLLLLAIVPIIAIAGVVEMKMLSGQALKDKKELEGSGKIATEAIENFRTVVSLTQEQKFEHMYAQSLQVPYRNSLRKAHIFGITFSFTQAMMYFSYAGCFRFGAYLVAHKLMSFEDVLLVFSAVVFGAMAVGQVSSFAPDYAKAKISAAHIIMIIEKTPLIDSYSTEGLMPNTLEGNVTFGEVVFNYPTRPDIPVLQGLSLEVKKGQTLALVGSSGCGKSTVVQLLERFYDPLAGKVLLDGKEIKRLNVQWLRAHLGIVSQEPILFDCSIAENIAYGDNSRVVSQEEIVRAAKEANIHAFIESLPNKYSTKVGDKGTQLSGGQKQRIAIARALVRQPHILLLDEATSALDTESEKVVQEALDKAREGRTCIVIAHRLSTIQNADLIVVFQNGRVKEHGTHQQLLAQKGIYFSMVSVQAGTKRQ"}, "MDR1 (P-gp) [6]": {"target": "T2, MDR1 (P-gp)", "assay": "in vitro", "conditions": "MDCK-MDR1"}, "P-gp": {"system": "P-gp", "conditions": "literature reports; cited from earlier work"}}, "note": "Where two headings read alike, the source gives them in different places.", "data": [{"smiles": "OCCOCCN1CCN(C(c2ccccc2)c2ccc(Cl)cc2)CC1", "note": "(stereo not drawn) [Hydroxyzine]", "values": [{"measurement": "AUC ratio of brain tissue to plasma (WT vs. KO comparison)", "setting": "P-gp (mdr1a/1b) [1]", "value": "approximately 1"}, {"measurement": "Vd", "setting": "in vivo; FVB and mdr1a/1b KO, plasma", "value": "2.4 to 3.7", "unit": "L/kg"}, {"measurement": "clearance", "setting": "in vivo; FVB and mdr1a/1b KO, plasma", "value": "70 to 80", "unit": "mL/min/kg"}, {"measurement": "Vd", "setting": "in vivo; FVB, plasma", "value": 3.7, "unit": "L/kg"}, {"measurement": "clearance", "setting": "in vivo; FVB, plasma", "value": 80, "unit": "mL/min/kg"}, {"measurement": "half-life", "setting": "in vivo; FVB, plasma", "value": 1.7, "unit": "h"}, {"measurement": "Vd", "setting": "in vivo; mdr1a/1b KO, plasma", "value": 2.4, "unit": "L/kg"}, {"measurement": "clearance", "setting": "in vivo; mdr1a/1b KO, plasma", "value": 70, "unit": "mL/min/kg"}, {"measurement": "half-life", "setting": "in vivo; mdr1a/1b KO, plasma", "value": 2.2, "unit": "h"}, {"measurement": "Kp", "setting": "P-gp (mdr1a/1b) [2]; FVB and mdr1a/1b KO", "value": 1.2}, {"measurement": "Kp", "setting": "P-gp (mdr1a/1b) [2]; FVB", "value": 3.8}, {"measurement": "Kp", "setting": "P-gp (mdr1a/1b) [2]; mdr1a/1b KO", "value": 4.8}, {"measurement": "concentration at 2 min", "setting": "[3]", "value": "~8000", "unit": "ng/mL"}, {"measurement": "time of peak brain tissue concentration", "setting": "P-gp (mdr1a/1b) [4]", "value": 2, "unit": "min"}]}, {"smiles": "Cc1ccc(/C(=C\\CN2CCCC2)c2ccccn2)cc1", "note": "[Triprolidine]", "values": [{"measurement": "AUC ratio of brain tissue to plasma (WT vs. KO comparison)", "setting": "P-gp (mdr1a/1b) [1]", "value": "approximately 1"}, {"measurement": "time of peak brain tissue concentration", "setting": "P-gp (mdr1a/1b) [1]; iv", "value": 2, "unit": "min"}, {"measurement": "MDR1 Substrate?", "setting": "MDR1 (P-gp) [5]; MDCK-MDR1", "value": "No"}, {"measurement": "MDR1 Substrate?", "setting": "MDR1 (P-gp) [5]; human, MDCK-MDR1, 5 h, 2 µM", "value": "not MDR1 substrates"}, {"measurement": "Vd", "setting": "in vivo; FVB and mdr1a/1b KO, in vivo", "value": "~2", "unit": "L/kg"}, {"measurement": "clearance", "setting": "in vivo; FVB and mdr1a/1b KO, in vivo", "value": "119 to 134", "unit": "mL/min/kg"}, {"measurement": "Vd", "setting": "in vivo; FVB, in vivo", "value": 2, "unit": "L/kg"}, {"measurement": "clearance", "setting": "in vivo; FVB, in vivo", "value": 119, "unit": "mL/min/kg"}, {"measurement": "half-life", "setting": "in vivo; FVB, in vivo", "value": 0.3, "unit": "h"}, {"measurement": "Vd", "setting": "in vivo; mdr1a/1b KO, in vivo", "value": 2.3, "unit": "L/kg"}, {"measurement": "clearance", "setting": "in vivo; mdr1a/1b KO, in vivo", "value": 134, "unit": "mL/min/kg"}, {"measurement": "half-life", "setting": "in vivo; mdr1a/1b KO, in vivo", "value": 0.5, "unit": "h"}, {"measurement": "Kp", "setting": "P-gp (mdr1a/1b) [2]; FVB and mdr1a/1b KO", "value": 0.6}, {"measurement": "Kp", "setting": "P-gp (mdr1a/1b) [2]; FVB", "value": 6.2}, {"measurement": "Kp", "setting": "P-gp (mdr1a/1b) [2]; mdr1a/1b KO", "value": 3.5}, {"measurement": "Papp A→B at 5 hr, 2 μM", "setting": "MDR1 (P-gp) [6]; dog", "value": 25.9, "unit": "×10⁻⁶ cm/s"}, {"measurement": "Papp B→A at 5 hr, 2 μM", "setting": "MDR1 (P-gp) [6]; dog", "value": 24.5, "unit": "×10⁻⁶ cm/s"}, {"measurement": "efflux ratio at 5 hr, 2 μM", "setting": "MDR1 (P-gp) [6]; human", "value": 0.9}]}, {"smiles": "CC(C)(C)c1ccc(C(O)CCCN2CCC(C(O)(c3ccccc3)c3ccccc3)CC2)cc1", "note": "(stereo not drawn) [terfenadine]", "values": [{"measurement": "P-gp substrate or inhibitor status", "setting": "P-gp", "value": "an inhibitor of and a substrate for P-gp in vitro"}]}]}
